Measurements as given in US20230126447A1, “OCULAR DRUG DEPOT FOR COMPLEMENT-MEDIATED DISORDERS” (priority 2020, published 2023).
Values joined by “and” are separate entries in the source; they are usually repeats but may differ in a detail not shown here. Identical values can stand only once. Like-named read-outs stand apart in the source and are kept apart here.

Key:
[1] = Phase 1 single ascending dose plasma pharmacokinetics in healthy volunteers; type: in vivo, human
Experimental: This study was conducted in healthy human volunteers in a randomized, double-blind design. Compound 1 or placebo was administered as a single oral dose to twenty-eight healthy volunteers in three separate dose groups. […] Pharmacokinetic data from each volunteer is summarized in Table 29, and plasma concentration data is shown graphically in FIG. 19.

[2] = In vitro binding to synthetic melanin; conditions: synthetic melanin 50 μg/mL, PBS, 37° C., 1 hour
Experimental: (§1) […] The melanin solution was stored in the dark at 37° C. until use.
(§2) Immediately after the assay, samples were added to an equal volume of warm PBS, aliquots (3 μL each) were removed, added to 100 μL of acetonitrile containing carbutamide as internal standard, and then diluted with water (197 μL). These time-zero samples, prepared in PBS only, were also used as calibration standards.
(§3) The assay plates containing samples with and without melanin were incubated in the dark with shaking at 37° C. for 1 hour. Following incubation, the samples were centrifuged for 15 minutes at approximately 4000 rpm at 37° C. to sediment the melanin. Sample supernatant (3 μL) was added to 100 μL of acetonitrile containing the internal standard and then diluted with water (197 μL).
(§4) The column was set to a temperature of 55° C. […]
(§5) Analytes and internal standards were detected using an Applied Biosystems Sciex API-5500 triple quadrupole mass spectrometer with Agilent 1260 Infinity Binary Pump and Apricot Designs ADDA High-Speed Dual Arm Autosampling System. The instrument was equipped with an electrospray ionization source (600° C.) operated in the positive ion mode. Analytes and internal standards for all samples were monitored in the multiple-reaction-monitoring scan mode.

[3] = Stability under melanin binding assay conditions; conditions: 1 h
Experimental: as §1, §3
% Stability=Mean Total Conc. (μM) after 1 Hour/Mean Total Conc. (μM) at Time Zero×100%

[4] = In vitro binding to melanin from Sepia officinalis; conditions: S. officinalis melanin 50 μg/mL, PBS, 37° C., 1 hour
Experimental: as §1, §2, §3, §4, §5

[5] = Multiple ascending dose (MAD) pharmacokinetics in humans; type: in vivo
[6] = Ocular tissue and plasma pharmacokinetics, 15 mg/kg oral, New Zealand White rabbits (Example 3/5); type: in vivo; conditions: NZW rabbit
[7] = Group 1, 200 mg single oral dose, individual subjects
[8] = Group 2, 600 mg single oral dose, individual subjects
[9] = Group 3, 1200 mg single oral dose, individual subjects
[10] = Choroid-RPE, 15 mg/kg single dose, Day 1
[11] = 15 mg/kg single oral dose, Day 1, 0 h, 15 mg/kg
[12] = 15 mg/kg single oral dose, Day 1, 6 h, 15 mg/kg

Question: With CC(=O)c1nn(CC(=O)N2C[C@H](F)C[C@H]2C(=O)Nc2cccc(Br)n2)c2ccc(-c3cnc(C)nc3)cc12 [Compound 1, (2S,4R)-1-(2-(3-Acetyl-5-(2-methylpyrimidin-5-yl)-1H-indazol-1-yl)acetyl)-N-(6-bromopyridin-2-yl)-4-fluoropyrrolidine-2-carboxamide] as the compound, how does the “AUC(0-24)” value [1, 7] read?
Answer: The value was 3387.20 ng·h/mL and 4128.01 ng·h/mL and 2339.30 ng·h/mL and 3615.79 ng·h/mL and 1888.95 ng·h/mL and 2229.07 ng·h/mL.

Question: What about the “AUC(0-∞)” value [1, 7] of the same compound?
Answer: Its value is 3616.53 ng·h/mL and 4241.37 ng·h/mL and 2569.69 ng·h/mL and 3822.48 ng·h/mL and 1993.07 ng·h/mL and 2385.64 ng·h/mL.

Question: And the Cmax [1, 7]?
Answer: The Cmax was 950 ng/mL and 2060 ng/mL and 764 ng/mL and 1380 ng/mL and 635 ng/mL and 562 ng/mL.

Question: What about the Tmax [1, 7] of the same compound?
Answer: The Tmax was 1.25 h.

Question: What about the “AUC(0-24)” value [1, 8] of the same compound?
Answer: The value was 6591.55 ng·h/mL and 6135.83 ng·h/mL and 6020.33 ng·h/mL and 4079.30 ng·h/mL and 7288.50 ng·h/mL.

Question: And the “AUC(0-∞)” value [1, 8]?
Answer: Its value is 6805.91 ng·h/mL and 7335.98 ng·h/mL and 6903.06 ng·h/mL and 4687.40 ng·h/mL and 8671.53 ng·h/mL.

Question: And the Cmax [1, 8]?
Answer: Its Cmax is 2480 ng/mL and 2100 ng/mL and 1380 ng/mL and 1810 ng/mL.

Question: What about the Tmax [1, 8] of the same compound?
Answer: The Tmax was 2.00 h and 1.25 h.

Question: What about the “AUC(0-24)” value [1, 9] of the same compound?
Answer: The value was 11822.00 ng·h/mL and 10219.40 ng·h/mL and 8431.90 ng·h/mL and 11357.50 ng·h/mL and 14054.00 ng·h/mL.

Question: What about the “AUC(0-∞)” value [1, 9] of the same compound?
Answer: Its value is 13297.29 ng·h/mL and 10982.71 ng·h/mL and 10243.93 ng·h/mL and 13190.18 ng·h/mL and 15424.93 ng·h/mL.

Question: And the Cmax [1, 9]?
Answer: The Cmax was 3080 ng/mL and 3230 ng/mL and 3530 ng/mL and 1940 ng/mL and 2530 ng/mL and 4100 ng/mL.

Question: What about the AUC(0-t) ([1]; human, po, 200 mg, Group 1, 200 mg single oral dose, Mean (N 6), read-out: AUC(0-24)) of the same compound?
Answer: The AUC(0-t) was 2930 ng·h/mL.

Question: What about the AUC(0-inf) ([1]; human, po, 200 mg, Group 1, 200 mg single oral dose, Mean (N 6), read-out: AUC(0-∞)) of the same compound?
Answer: The AUC(0-inf) was 3100 ng·h/mL.

Question: And the Cmax ([1]; human, po, 200 mg, Group 1, 200 mg single oral dose, Mean (N 6), read-out: Cmax)?
Answer: Its Cmax is 1060 ng/mL.

Question: What about the Tmax ([1]; human, po, 200 mg, Group 1, 200 mg single oral dose, Mean (N 6), read-out: Tmax) of the same compound?
Answer: Its Tmax is 1.79 h.

Question: And the Tmax ([1]; human, po, 200 mg, Group 1, 200 mg single oral dose, individual subjects, read-out: Tmax)?
Answer: The Tmax was 1.5 h.

Question: What about the AUC(0-t) ([1]; human, po, 200 mg, Group 1, 200 mg single oral dose, read-out: Mean AUC(0-24)) of the same compound?
Answer: The AUC(0-t) was 2390 ng·h/mL.

Question: And the AUC(0-inf) ([1]; human, po, 200 mg, Group 1, 200 mg single oral dose, read-out: Mean AUC(0-∞))?
Answer: The AUC(0-inf) was 3020 ng·h/mL.

Question: And the Cmax ([1]; human, po, 200 mg, Group 1, 200 mg single oral dose, read-out: Mean Cmax)?
Answer: The Cmax was 1060 ng/mL.

Question: And the AUC(0-t) ([1]; human, po, 600 mg, Group 2, 600 mg single oral dose, Mean (N 6), read-out: AUC(0-24))?
Answer: Its AUC(0-t) is 6190 ng·h/mL.

Question: And the AUC(0-inf) ([1]; human, po, 600 mg, Group 2, 600 mg single oral dose, Mean (N 6), read-out: AUC(0-∞))?
Answer: Its AUC(0-inf) is 7090 ng·h/mL.

Question: What about the Cmax ([1]; human, po, 600 mg, Group 2, 600 mg single oral dose, Mean (N 6), read-out: Cmax) of the same compound?
Answer: Its Cmax is 2020 ng/mL.

Question: And the Tmax ([1]; human, po, 600 mg, Group 2, 600 mg single oral dose, Mean (N 6), read-out: Tmax)?
Answer: The Tmax was 1.63 h.

Question: And the AUC(0-t) ([1]; human, po, 600 mg, Group 2, 600 mg single oral dose, individual subjects, read-out: AUC(0-24))?
Answer: The AUC(0-t) was 7020 ng·h/mL.

Question: And the AUC(0-inf) ([1]; human, po, 600 mg, Group 2, 600 mg single oral dose, individual subjects, read-out: AUC(0-∞))?
Answer: The AUC(0-inf) was 8160 ng·h/mL.

Question: What about the Cmax ([1]; human, po, 600 mg, Group 2, 600 mg single oral dose, individual subjects, read-out: Cmax) of the same compound?
Answer: The Cmax was 2180 ng/mL.

Question: And the AUC(0-t) ([1]; human, po, 600 mg, Group 2, 600 mg single oral dose, read-out: Mean AUC(0-24))?
Answer: Its AUC(0-t) is 6190 ng·h/mL.

Question: And the AUC(0-inf) ([1]; human, po, 600 mg, Group 2, 600 mg single oral dose, read-out: Mean AUC(0-∞))?
Answer: The AUC(0-inf) was 7090 ng·h/mL.

Question: And the Cmax ([1]; human, po, 600 mg, Group 2, 600 mg single oral dose, read-out: Mean Cmax)?
Answer: Its Cmax is 2020 ng/mL.

Question: And the AUC(0-t) ([1]; human, po, 1200 mg, Group 3, 1200 mg single oral dose, Mean (N 6), read-out: AUC(0-24))?
Answer: The AUC(0-t) was 11400 ng·h/mL.

Question: And the AUC(0-inf) ([1]; human, po, 1200 mg, Group 3, 1200 mg single oral dose, Mean (N 6), read-out: AUC(0-∞))?
Answer: The AUC(0-inf) was 13200 ng·h/mL.

Question: What about the Cmax ([1]; human, po, 1200 mg, Group 3, 1200 mg single oral dose, Mean (N 6), read-out: Cmax) of the same compound?
Answer: The Cmax was 3070 ng/mL.

Question: What about the Tmax ([1]; human, po, 1200 mg, Group 3, 1200 mg single oral dose, Mean (N 6), read-out: Tmax) of the same compound?
Answer: The Tmax was 2.5 h.

Question: What about the AUC(0-t) ([1]; human, po, 1200 mg, Group 3, 1200 mg single oral dose, individual subjects, read-out: AUC(0-24)) of the same compound?
Answer: The AUC(0-t) was 12700 ng·h/mL.

Question: What about the AUC(0-inf) ([1]; human, po, 1200 mg, Group 3, 1200 mg single oral dose, individual subjects, read-out: AUC(0-∞)) of the same compound?
Answer: The AUC(0-inf) was 15800 ng·h/mL.

Question: And the Tmax ([1]; human, po, 1200 mg, Group 3, 1200 mg single oral dose, individual subjects, read-out: Tmax)?
Answer: The Tmax was 2.5 h.

Question: What about the AUC(0-t) ([1]; human, po, 1200 mg, Group 3, 1200 mg single oral dose, read-out: Mean AUC(0-24)) of the same compound?
Answer: The AUC(0-t) was 11400 ng·h/mL.

Question: What about the AUC(0-inf) ([1]; human, po, 1200 mg, Group 3, 1200 mg single oral dose, read-out: Mean AUC(0-∞)) of the same compound?
Answer: Its AUC(0-inf) is 13200 ng·h/mL.

Question: What about the Cmax ([1]; human, po, 1200 mg, Group 3, 1200 mg single oral dose, read-out: Mean Cmax) of the same compound?
Answer: Its Cmax is 3070 ng/mL.

Question: And the “Bmax (binding capacity)” value [2]?
Answer: The value was 127 nmol/mg melanin.

Question: What about the “Mean Stability” value [3] of the same compound?
Answer: The value was 94.3%.

Question: And the “Bmax (binding capacity)” value [4]?
Answer: The value was 137 nmol/mg melanin.

Question: What about the “Steady state conditions reached” value ([5]; MAD study) of the same compound?
Answer: The value was “Day 2”.

Question: And the Tmax ([5]; human, in vivo, 200 to 800 mg BID and 75 mg TID, read-out: Median time to maximum concentration (Tmax))?
Answer: The Tmax was 1 to 2.3 h.

Question: What about the MRTlast [6, 10] of the same compound?
Answer: Its MRTlast is 5.87 h.

Question: And the Tlast [6, 10]?
Answer: The Tlast was 24 h.

Question: What about the Tlast ([6]; Iris-Ciliary Body, 15 mg/kg single dose, Day 1) of the same compound?
Answer: Its Tlast is 1 h.

Question: What about the “Mean Vitreous Humor concentration” value ([6]; 15 mg/kg single oral dose, Day 1, 0 h) of the same compound?
Answer: Its value is “BLQ^a”.

Question: What about the “Mean Choroid-RPE concentration” value [6, 11] of the same compound?
Answer: Its value is “BLQ^a and BLQ”.

Question: What about the “Mean Iris-Ciliary Body concentration” value [6, 11] of the same compound?
Answer: The value was “BLQ^a and BLQ”.

Question: And the Mean plasma concentration [6, 11]?
Answer: The Mean plasma concentration was “BLQ^a and BLQ”.

Question: And the Mean retina concentration [6, 11]?
Answer: The Mean retina concentration was “BLQ^a and BLQ”.

Question: And the “Mean Aqueous Humor concentration” value ([6]; 15 mg/kg single oral dose, Day 1, 6 h)?
Answer: The value was “BLQ^a”.

Question: What about the “Mean Iris-Ciliary Body concentration” value [6, 12] of the same compound?
Answer: Its value is “BLQ^a and BLQ”.

Question: And the Mean retina concentration [6, 12]?
Answer: Its Mean retina concentration is 26 ng/g.
